Assay results reported in PubChem BioAssay (NCI).
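Briefly, cells in 96-well plates were exposed to five compound concentrations for 48 h, and endpoints were estimated by linear interpolation. GI50: concentration for 50% inhibition of growth. At the TGI there is no net growth.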

Experiments:
Experiment in all cases: NCI tumour cell line growth inhibition, 48 h
DLD-1 colon = test system: DLD-1 colon
DMS 273 small cell lung = test system: DMS 273 small cell lung
HOP-18 NSCLC = test system: HOP-18 NSCLC
KM20L2 colon = test system: KM20L2 colon
LXFL 529 NSCLC = test system: LXFL 529 NSCLC
M19-MEL melanoma = test system: M19-MEL melanoma
SNB-78 CNS = test system: SNB-78 CNS
XF 498 CNS = test system: XF 498 CNS
RXF-631 renal = test system: RXF-631 renal

COc1ccc2nc(NC(=O)C(=O)CC(=O)c3ccc(Cl)cc3)sc2c1
TGI (DLD-1 colon): > 100 µM
TGI (DMS 273 small cell lung): > 100 µM
TGI (HOP-18 NSCLC): > 100 µM
TGI (KM20L2 colon): > 100 µM
TGI (LXFL 529 NSCLC): > 100 µM
TGI (M19-MEL melanoma): > 100 µM
TGI (SNB-78 CNS): > 100 µM
TGI (XF 498 CNS): > 100 µM

Cc1c(C(=O)CC(=O)C(=O)Nc2cccc(C(F)(F)F)c2)[n+](=O)c2ccccc2n1[O-]
TGI (DMS 273 small cell lung): 10.3 µM
TGI (HOP-18 NSCLC): 25.5 µM
TGI (KM20L2 colon): 11.8 µM
TGI (LXFL 529 NSCLC): 14.1 µM
TGI (M19-MEL melanoma): 3.69 µM
TGI (RXF-631 renal): 11 µM
TGI (SNB-78 CNS): 25.2 µM

CN(C)c1ccc(/C=C2\N=C(c3ccc(N)cc3)OC2=O)cc1
TGI (DLD-1 colon): > 100 µM
TGI (DMS 273 small cell lung): > 100 µM
TGI (HOP-18 NSCLC): > 100 µM
TGI (KM20L2 colon): > 100 µM
TGI (LXFL 529 NSCLC): > 100 µM
TGI (M19-MEL melanoma): > 100 µM
TGI (RXF-631 renal): > 100 µM
TGI (SNB-78 CNS): > 100 µM
TGI (XF 498 CNS): > 100 µM

CC(C)(C)C(=O)C(c1ccc(-c2cscn2)cc1)c1ccc(-c2cscn2)cc1
TGI (DLD-1 colon): > 100 µM
TGI (DMS 273 small cell lung): > 100 µM
TGI (HOP-18 NSCLC): > 100 µM
TGI (KM20L2 colon): > 100 µM
TGI (LXFL 529 NSCLC): > 100 µM
TGI (M19-MEL melanoma): > 100 µM
TGI (RXF-631 renal): > 100 µM
TGI (SNB-78 CNS): 78.5 µM
TGI (XF 498 CNS): 80.5 µM

O=C(c1ccc(NCN2C(=O)CCC2=O)cc1)c1ccc(NCN2C(=O)CCC2=O)cc1
TGI (DLD-1 colon): > 100 µM
TGI (DMS 273 small cell lung): > 100 µM
TGI (KM20L2 colon): > 100 µM
TGI (LXFL 529 NSCLC): > 100 µM
TGI (M19-MEL melanoma): > 100 µM
TGI (RXF-631 renal): > 100 µM
TGI (SNB-78 CNS): > 100 µM
TGI (XF 498 CNS): > 100 µM

O=C(N/N=C/c1cc(Br)cc(Br)c1[O-])c1ccccc1O.O=C(N/N=C/c1cc(Br)cc(Br)c1[O-])c1ccccc1O.[Mn+2]
TGI (KM20L2 colon): 21.3 µM

O[C@]12CCCC[C@H]1CCC2
TGI (DMS 273 small cell lung): > 100 µM
TGI (LXFL 529 NSCLC): > 100 µM
TGI (M19-MEL melanoma): > 100 µM
TGI (RXF-631 renal): > 100 µM
TGI (SNB-78 CNS): > 100 µM
TGI (XF 498 CNS): > 100 µM

CC(=O)O[C@@H]1CC(C)C2CC2C2=C(C(O)OC2O)[C@@H]1C(C)CCC=C(C)C (stereo not given in full)
TGI (DLD-1 colon): 73.3 µM
TGI (DMS 273 small cell lung): 45.3 µM
TGI (KM20L2 colon): 39.9 µM
TGI (LXFL 529 NSCLC): 81.9 µM
TGI (M19-MEL melanoma): 47.5 µM
TGI (SNB-78 CNS): 90.2 µM
TGI (XF 498 CNS): 49.9 µM

O=C1NC2(O)c3ccccc3C(=O)C2(O)N1c1ccccc1 (stereo not given)
TGI (DLD-1 colon): > 100 µM
TGI (HOP-18 NSCLC): > 100 µM
TGI (KM20L2 colon): > 100 µM
TGI (LXFL 529 NSCLC): > 100 µM
TGI (M19-MEL melanoma): > 100 µM
TGI (RXF-631 renal): > 100 µM
TGI (XF 498 CNS): > 100 µM

CC(=O)Oc1cccc2c1C(=O)C(Br)(Br)CCC2
TGI (DLD-1 colon): 36.2 µM
TGI (DMS 273 small cell lung): 14.9 µM
TGI (HOP-18 NSCLC): 32.2 µM
TGI (KM20L2 colon): 21.7 µM
TGI (LXFL 529 NSCLC): 18.7 µM
TGI (M19-MEL melanoma): 24.6 µM
TGI (RXF-631 renal): 35.5 µM
TGI (SNB-78 CNS): 33.8 µM
TGI (XF 498 CNS): 24.1 µM

CC(=S)NNC(=O)c1ccncc1
TGI (DLD-1 colon): > 100 µM
TGI (DMS 273 small cell lung): > 100 µM
TGI (HOP-18 NSCLC): > 100 µM
TGI (KM20L2 colon): > 100 µM
TGI (LXFL 529 NSCLC): > 100 µM
TGI (M19-MEL melanoma): > 100 µM
TGI (SNB-78 CNS): > 100 µM
TGI (XF 498 CNS): > 100 µM

CN(C)CCCn1c2c3ccccc3ccc2c2oc(=O)c3ccccc3c21
TGI (DLD-1 colon): 2.99 µM
TGI (DMS 273 small cell lung): 4.22 µM
TGI (HOP-18 NSCLC): 40.2 µM
TGI (KM20L2 colon): 2.78 µM
TGI (LXFL 529 NSCLC): 10 µM
TGI (M19-MEL melanoma): 8.86 µM
TGI (SNB-78 CNS): 39 µM
TGI (XF 498 CNS): 9.55 µM

Cc1cc2c(c(C#N)c1C)NC(=O)C(CC(=O)O)C2=O (stereo not given)
TGI (DLD-1 colon): > 100 µM
TGI (DMS 273 small cell lung): > 100 µM
TGI (HOP-18 NSCLC): > 100 µM
TGI (KM20L2 colon): > 100 µM
TGI (LXFL 529 NSCLC): > 100 µM
TGI (M19-MEL melanoma): > 100 µM
TGI (RXF-631 renal): > 100 µM
TGI (SNB-78 CNS): > 100 µM
TGI (XF 498 CNS): > 100 µM

COc1cc2c(cc1OC)[C@@H](C(O)c1ccccc1)NCC2 (stereo not given in full)
TGI (DLD-1 colon): > 100 µM
TGI (DMS 273 small cell lung): > 100 µM
TGI (KM20L2 colon): > 100 µM
TGI (LXFL 529 NSCLC): > 100 µM
TGI (M19-MEL melanoma): > 100 µM
TGI (RXF-631 renal): > 100 µM
TGI (SNB-78 CNS): > 100 µM
TGI (XF 498 CNS): > 100 µM

COC1=C(C(=O)OC(C)(C)C)[C@]2(C)C(C(=O)OC(C)(C)C)C(OC)=C(C(=O)OC(C)(C)C)[C@]2(C)C1C(=O)OC(C)(C)C (stereo not given in full)
TGI (DLD-1 colon): > 100 µM
TGI (DMS 273 small cell lung): > 100 µM
TGI (HOP-18 NSCLC): > 100 µM
TGI (KM20L2 colon): > 100 µM
TGI (LXFL 529 NSCLC): > 100 µM
TGI (M19-MEL melanoma): > 100 µM
TGI (SNB-78 CNS): > 100 µM
TGI (XF 498 CNS): > 100 µM

CC(=O)OC[C@@H]1[C@H]2CC(=O)O[C@H]2C[C@H]1OC(C)=O
TGI (DLD-1 colon): > 100 µM
TGI (DMS 273 small cell lung): > 100 µM
TGI (HOP-18 NSCLC): > 100 µM
TGI (KM20L2 colon): > 100 µM
TGI (LXFL 529 NSCLC): > 100 µM
TGI (M19-MEL melanoma): > 100 µM
TGI (SNB-78 CNS): > 100 µM

COc1ccc(C=NC23CC4CC(CC(C4)C2)C3)cc1
TGI (DMS 273 small cell lung): > 10 µM
TGI (KM20L2 colon): > 100 µM
TGI (M19-MEL melanoma): > 10 µM
TGI (SNB-78 CNS): > 100 µM

O=C(Nc1nccs1)c1cc(C2=CC=CC([N+](=O)[O-])C=C2)nc(=S)[nH]1 (stereo not given)
TGI (DMS 273 small cell lung): > 100 µM
TGI (HOP-18 NSCLC): > 100 µM
TGI (KM20L2 colon): > 100 µM
TGI (LXFL 529 NSCLC): > 100 µM
TGI (M19-MEL melanoma): > 100 µM
TGI (SNB-78 CNS): > 100 µM

COC1CC(OS(=O)(=O)c2ccc(C)cc2)C(OS(=O)(=O)c2ccc(C)cc2)C(COS(=O)(=O)c2ccc(C)cc2)O1 (stereo not given)
TGI (DLD-1 colon): 22.7 µM
TGI (DMS 273 small cell lung): 18.6 µM
TGI (HOP-18 NSCLC): 8.36 µM
TGI (KM20L2 colon): 30.9 µM
TGI (LXFL 529 NSCLC): 18.7 µM
TGI (M19-MEL melanoma): 20 µM
TGI (SNB-78 CNS): > 100 µM

C=CCN=C1N=C(CC(=O)OCC)CS1
TGI (DLD-1 colon): > 100 µM
TGI (DMS 273 small cell lung): > 100 µM
TGI (HOP-18 NSCLC): > 100 µM
TGI (KM20L2 colon): > 100 µM
TGI (LXFL 529 NSCLC): > 100 µM
TGI (M19-MEL melanoma): > 100 µM
TGI (SNB-78 CNS): > 100 µM
TGI (XF 498 CNS): > 100 µM

CCOC(=O)NC(=O)c1cn(CCCOC(=O)CCCCCCCCC(=O)OCCCn2cc(C(=O)NC(=O)OCC)c(=O)[nH]c2=O)c(=O)[nH]c1=O
TGI (DLD-1 colon): 53.1 µM
TGI (DMS 273 small cell lung): 66.6 µM
TGI (HOP-18 NSCLC): 56.4 µM
TGI (KM20L2 colon): > 100 µM
TGI (LXFL 529 NSCLC): 79.8 µM
TGI (M19-MEL melanoma): > 100 µM
TGI (SNB-78 CNS): > 100 µM
TGI (XF 498 CNS): 72.4 µM

N#CC1(c2nc3ccccc3o2)C(=O)C(=O)N(c2ccc(Cl)c(Cl)c2)C(=O)C1=O
TGI (DLD-1 colon): > 100 µM
TGI (DMS 273 small cell lung): > 100 µM
TGI (HOP-18 NSCLC): > 100 µM
TGI (KM20L2 colon): > 100 µM
TGI (LXFL 529 NSCLC): > 100 µM
TGI (SNB-78 CNS): > 100 µM
TGI (XF 498 CNS): > 100 µM

CC[O-].CC[O-].O=Nc1ccc2cc([O-])ccc2c1.O=Nc1ccc2cc([O-])ccc2c1.[Ti+4]
GI50 (DLD-1 colon): 2.45 µM
TGI (DLD-1 colon): > 21.9 µM
GI50 (DMS 273 small cell lung): 1.68 µM
TGI (DMS 273 small cell lung): 3.11 µM
GI50 (HOP-18 NSCLC): 1.49 µM
TGI (HOP-18 NSCLC): 2.82 µM
GI50 (KM20L2 colon): 2.83 µM
TGI (KM20L2 colon): 8.22 µM
GI50 (M19-MEL melanoma): 0.728 µM
TGI (M19-MEL melanoma): 3.25 µM
GI50 (SNB-78 CNS): 2.79 µM
